Data as given in patent publication US20100210537A1, “USE OF A DEFENSIN PEPTIDE AS A THERAPEUTIC AGENT” (priority 2007, published 2010).
Where no end group is shown, it is not given here.

Tests used:
[1] = test system: HIV-1IIIB; test: HIV-1 antiviral assay in CEM-SS cells (MTS readout); format: cell-based
[2] = test system: HCMV strain AD169; test: HCMV plaque formation assay in MRC-5 cells; settings: for inhibition of HCMV plaque formation as compared to the virus control experiment: 10 micrograms per ml, 7-10 days
[3] = test system: hepatitis B virus (HBV) ayw strain; test: HBV assay in HepG2-2.2.15 cells (TaqMan PCR of secreted HBV DNA); format: cell-based; settings: 10 micrograms per ml, six days
Text: HepG2-2.2.15 is a stable cell line containing the hepatitis B virus (HBV) ayw strain genome (ATCC Cat. No. CRL-11997). Antiviral compounds blocking any late step of viral replication such as transcription, translation, pregenome encapsidation, reverse transcription, particle assembly and release can be identified and characterized using this cell line. In this assay, an active compound will reduce the production of secreted HBV from cells, measured by utilizing real time quantitative PCR (TaqMan) assay to directly and accurately measure HBV DNA copies.
HepG2-2.2.15 cells were plated in 96-well microtiter plates. After 16-24 hours the confluent monolayer of HepG2-2.2.15 cells was washed and the medium was replaced with complete medium containing test peptides-10 micrograms per ml-in duplicate. […] Six days following the initial administration of the peptides, the cell culture supernatants was collected, treated with pronase and DNAse and then used in a real-time quantitative TaqMan PCR assay. The PCR-amplified HBV DNA was detected in real-time by monitoring increases in fluorescence signals that result from the exonucleolytic degradation of a quenched fluorescence probe molecule that hybridizes to the mplified HBV DNA. […] Antiviral activity was calculated from the reduction in HBV DNA levels (% virus control). […]

[4] = test system: Interleukin-2 (IL-2); test: Th1/Th2 cytokine profiling assay: IL-2; format: cell-based, Balb/c mice; settings: 10 micrograms per ml; Ovalbumin-restimulated spleen cells, 72 hours
Procedure: (§1) On day 50, spleens of the mice were harvested (3 weeks after last boost with Ovalbumin). Cells were cultured (2×10^5/well in triplicate) and incubated with culture medium or test peptides-10 micrograms per ml-for 30 min. Thereafter, additional Ovalbumin was added to the cells at 10 micrograms/ml for in vitro restimulation of the cells. 72 hours later, cell supernatants were harvested and assayed using the Becton Dickinson Mouse Th1/Th2 Cytokine CBA Kit.

[5] = test system: Interleukin-4 (IL-4); test: Th1/Th2 cytokine profiling assay: IL-4; format: cell-based, Balb/c mice; settings: 10 micrograms per ml; Ovalbumin-restimulated spleen cells, 72 hours
Procedure: as §1

[6] = test system: Interleukin-5 (IL-5); test: Th1/Th2 cytokine profiling assay: IL-5; format: cell-based, Balb/c mice; settings: 10 micrograms per ml; Ovalbumin-restimulated spleen cells, 72 hours
Procedure: as §1

[7] = test system: Interferon-γ (IFN-γ); test: Th1/Th2 cytokine profiling assay: IFN-gamma; format: cell-based, Balb/c mice; settings: 10 micrograms per ml; Ovalbumin-restimulated spleen cells, 72 hours
Procedure: as §1

[8] = test system: Tumor Necrosis Factor-α (TNF-α); test: Th1/Th2 cytokine profiling assay: TNF-alpha; format: cell-based, Balb/c mice; settings: 10 micrograms per ml; Ovalbumin-restimulated spleen cells, 72 hours
Procedure: as §1

[9] = test system: Primary Human endothelial cells (HUVEC); test: Endothelial cell migration assay; format: cell-based; settings: 10 micrograms per ml, 22 hours
Procedure: Thereafter, designated concentration of testing peptides-10 micrograms per ml-was added in duplicate wells.

[10] = test system: HUVEC; test: Endothelial tube formation assay; format: cell-based, human; settings: 10 micrograms per ml, 20 hours
Text: Positive control was vehicle only.

Compound	antiviral activity of positive control compounds [1]	antiviral activity of positive control compound ([2]; positive control, HCMV AD169)	inhibition of HBV replication as compared to the virus control infection [3]	decrease of the production of IL-2 in murine spleen cells [4]	decrease of the production of IL-4 in murine spleen cells [5]	decrease of the production of IL-5 in murine spleen cells [6]	change of the production of IFN-gamma in murine spleen cells [7]	change of the production of TNF-alpha in murine spleen cells [8]	inhibition of the migration of human endothelial cells [9] [%]	inhibition of the tube formation of human endothelial cells [10] [%]	inhibition of HCMV plaque formation as compared to the virus control experiment [2]
Cc1cn([C@H]2C[C@H](N=[N+]=[N-])[C@@H](CO)O2)c(=O)[nH]c1=O [AZT]	expected levels of antiviral activity	–	–	–	–	–	–	–	–	–	–
Nc1nc(O)c2ncn(COC(CO)CO)c2n1 [Ganciclovir, reference compound]	–	expected levels of antiviral activity	–	–	–	–	–	–	–	–	–
CC(C)(C)NC(=O)[C@@H]1CN(Cc2cccnc2)CCN1C[C@@H](O)C[C@@H](Cc1ccccc1)C(=O)N[C@H]1c2ccccc2C[C@H]1O [indinavir]	expected levels of antiviral activity	–	–	–	–	–	–	–	–	–	–
Cys-Tyr-Cys-Arg-Ile-Pro-Ala-Cys-Ile-Ala-Gly-Glu-Arg-Arg-Tyr-Gly-Thr-Cys-Ile-Tyr-Gln-Gly-Arg-Leu-Trp-Ala-Phe-Cys-Cys-OH (CYCRIPACIAGERRYGTCIYQGRLWAFCC-OH; cysteine pairing not given here) [Peptide 1]	–	–	did not inhibit	100%	49.4%	38.4%	did not significantly change	did not significantly change	17	21	did not inhibit
Ser-Glu-Ile-Trp-Arg-Asp-Ile-Asp-Phe-OH (SEIWRDIDF-OH) [Peptide 2]	–	–	21.6%	did not significantly change	did not significantly change	did not significantly change	did not significantly change	did not significantly change	18	19	did not inhibit
